Results: a melting point compilation (Tetko et al.; mined from patent text by program, amines drawn as free bases though some values may be those of a salt)

SMILES | melting point [°C]
O=C(Nc1cccc2c(=O)cc[nH]c12)c1c(Cl)cccc1Cl | 342
CC(=NO)c1ccc2c(c1)C(c1ccccc1F)=NC(C)C(=O)N2C (stereo not given) | 101 to 103
Cc1cc(CSCCNC(=C[N+](=O)[O-])NCCc2cccc(O)c2)sc1CN(C)C | 114 to 115
CN1CCN(CCCNc2ncc3c(n2)-c2ccccc2C(c2ccc(N)cc2)C3)CC1 (stereo not given) | 75 to 77
O=C(c1coc(-c2ccc(CCl)cc2)n1)N1CCCC1 | 126 to 128
CSc1cn(C)c2c(-c3ccccc3)csc2c1=O | 204 to 206
CC1(C)CC(=O)C2=C(C1)NC1=C(C(=O)CC(C)(C)C1)C2c1cccc(Oc2ccncc2)c1 | 186 to 188
COc1ccc(-c2c(C)ncc(C#N)c2Nc2ccc3[nH]ccc3c2C)cc1OC | 202 to 203
CC(CN1CC(=O)N(CN2CCSCC2)C(=O)C1)N1CC(=O)NC(=O)C1 (stereo not given) | 206 to 208
CCOC(=O)Cc1ccccc1NC(=O)c1sc2ccc(OC)cc2c1OC(C)C | 105 to 106
CCOC(=O)c1nc2scc(C(=O)O)c2c(=O)[nH]1 | 258
O=C(OC(c1ccccc1)c1ccccc1)C(NC=S)c1ccccc1 (stereo not given) | 129 to 130
CSC(=S)Oc1cnc(C)c2c1COC(C)(C)O2 | 88 to 90
Fc1cc(-n2cc(CNC(=S)c3ccccn3)nn2)ccc1N1CCSCC1 | 158 to 160
O=C(O)COc1cccc2c(CCS(=O)(=O)C(c3ccccc3)c3ccccc3)coc12 | 177 to 179
COC(=O)c1cnn(-c2cccc(Cl)c2)c1C(N)=O | 191 to 192
CCOC(=O)c1cc(N)nn1C | 57 to 58
COCc1noc(N2CCC([C@H]3C[C@H]3CCOc3ccc(S(C)(=O)=O)cn3)CC2)n1 | 68 to 70
CCOP(=O)(/C=C/c1cn(-c2ccccc2)nc1OCc1ccc(OCc2nc(-c3ccco3)oc2C)c(C(=O)OC)c1)OCC | 92 to 93
N=C(N)c1ccc(C(=O)N2CCCCC2C(=O)N2CCC(OCC(=O)O)CC2)cc1 (stereo not given) | 233 to 234
CC(C)(C)c1ccc(S(=O)(=O)n2c(CCCC(=O)O)cc3nc(Cl)ccc32)cc1 | 168
CC(C)NC(=O)C1c2cc(NC(=O)c3cc(C(F)(F)F)nn3-c3ncccc3Cl)c(Cl)cc2CC1O (stereo not given) | 204 to 205
CC(Cn1ncnn1)n1nnc2cc3c(=O)n(Cc4cccnc4)nnc3cc2c1=O (stereo not given) | 200
c1ccc(Cn2c3ccccc3c3cc(-c4nc(C5CC5)no4)sc32)cc1 | 140 to 141
NC(=S)C1(c2ccccn2)SCCCS1 | 214
Cc1cc(NCCO)c2nn(-c3ccccc3)c(C)c2n1 | 159 to 161

SMILES | melting point [°C]
CSc1ccc(-c2coc3ccc(-c4nnc(C)o4)cc23)cc1F | 179 to 180
C=CCCCOc1ccc(-c2ccc([N+](=O)[O-])cc2)cc1 | 74 to 76
Clc1ccc(CC[C@H]2CN(Cc3ccccc3)CCN2Cc2ccccc2)cc1 | 87 to 90
CCOC(=O)c1c(N2CCN(C(=O)c3cccs3)CC2)c2cccnc2n(Cc2ccccc2)c1=O | 168
CCOC(=O)c1cc2c(F)cc(F)cc2[nH]1 | 153 to 154
FC(F)(F)c1ccc(Cn2cnc3c(-c4ccco4)ncnc32)cc1 | 159 to 161
CCN(CC)C(=O)c1c(C=O)ccnc1OC | < 50
Cc1ccc(CCc2ccccc2)c(OCC[C@@H]2C[C@@H](O)CN2C)c1 | 97 to 100
CCNC(=O)c1c(Cl)cccc1[Si](C)(C)c1ccccc1 | 89 to 91
CC(=O)N1CCc2c(c3ccc(-n4ccc(OCc5ccccc5)cc4=O)cc3n2C)C1 | 225 to 230
CC(C)(C)OC(=O)NNC(=O)N1CCN(NC(=O)OCc2ccccc2)C1=O | 195 to 198
COc1cccc2c1nc(C(F)F)n2-c1nc(N2CCOCC2)c2cnn(C3CCN(S(=O)(=O)CCl)CC3)c2n1 | 250 to 253
CN(C)S(=O)(=O)NC1CCC(CCN2CCN(c3nccc4c3OCC4)CC2)CC1 (stereo not given) | 128
COc1ccccc1NC(=O)Nc1nc(N2CCCCC2)nc(N(CCC(=O)O)Cc2ccc(Cl)c(Cl)c2)n1 | 111 to 115
CC(C)(C)NS(=O)(=O)c1c(C(=O)O)sc2ccccc12 | 180
O=C(NCc1ccccn1)OCCOCCOC(=O)NCC1CCCCC1 | 65 to 67
COC(=O)C=Cc1ccc(OCCN(C)c2ccccn2)cc1 | 93 to 95
Cc1ccc(C=Nc2cc(F)ccc2C(=O)O)cc1 | 144 to 145
CC(=O)NC(C)(C)c1ccc(C(C)N2CCN(c3ccc(F)cc3)CC2)cc1 (stereo not given) | 156 to 157
Cc1cccc2c(Nc3cc(CO)cc(NC(=O)Oc4ccc(N(CCCl)CCCl)cc4)c3)c3ccccc3nc12 | 229 to 231
CCCCCCCCCCCCCCCCCCOc1ccc2c(c1OCCCCCCCCCCCCCCCCCC)C(=O)c1ccccc1C2=O | 100 to 107
COc1cc(C)nc(OC)c1NC(=O)CN1CCN(CCSc2nc3ccccc3o2)CC1 | 113 to 115
CN(c1cccc2cc(C3=NCC(CC(N)=O)S3)[nH]c12)S(=O)(=O)c1ccccn1 (stereo not given) | 149 to 150
COCC1CN(c2ccc(OCCC(C)O)cc2)C(=O)O1 (stereo not given) | 58
COc1ccc2c(c1)C(=O)C(Cc1cccc(NS(=O)(=O)C(F)(F)F)c1)CO2 (stereo not given) | 114 to 116

More lines, now with the values ahead:

melting point [°C] | SMILES
104 to 106 | CC(C)c1cccc(C(C)C)c1NC(=O)N(c1ccccc1)c1nnn(CCCCCCCC=O)n1
92 to 94 | CCNC1CCN(c2nc(N3CCOCC3)c3ncnc(N(C)Cc4ccccc4)c3n2)CC1
110 to 112 | C[C@H](C/C=C/C=C/C(C)(C)O)[C@H]1CC[C@H]2[C@@H](O)CCC[C@]12C
34 to 35 | O=C(c1ccc(Cl)cc1)c1ccc(CSC(F)F)cc1
118 | CC1(CCCN2CC[C@H](CNC(=O)c3cc(Cl)c(N)c4c3OCC4)[C@H](O)C2)OCCO1 (relative stereo)
41 | COc1ccc(Cc2nc3c(cnn3C(CCCc3ccccc3)C(C)O)c(=O)[nH]2)cc1 (stereo not given)
162 to 166 | O=C(NCCCN1CCOCC1)Nc1nc2ccc(OCc3c(Cl)cccc3Cl)cc2s1
168 to 179 | Cc1cccc2c1N(Cc1c[nH]cn1)C(=O)C(NC(=O)Nc1cccc(-c3nnn[nH]3)c1)N=C2C1CCCCC1 (stereo not given)
128 to 130 | Cc1ccc(OCc2sccc2S(=O)(=O)Nc2onc(C)c2Br)cc1
176 to 179 | CCCCNc1nc(N)nc(-c2ccc(Cl)c(Cl)c2)n1
100 to 101 | O=C(Cl)c1ccc(-c2nc(C(Cl)(Cl)Cl)nc(C(Cl)(Cl)Cl)n2)cc1
171 to 177 | CS(=O)(=O)c1ccc(-c2ccc3cnc(Nc4ccc(N5CCOCC5)nc4)nn23)cc1
165 to 168 | O=C(O)CC(Sc1nc2ccccc2s1)C(=O)O (stereo not given)
80 to 81 | CCOC(=O)C1C(c2ccc(OC)cc2)=NCC1c1ccc2c(c1)OCO2 (stereo not given)
120 to 121 | C=C(C)OC(=O)N1c2nc(C)ccc2NC(=S)C1C (racemic)
173 to 175 | COCc1c(C(=O)OC(C)(C)C)ncc2[nH]c3ccc(Oc4ccc(Br)cn4)cc3c12
108 to 110 | CCOC(=O)C(Cl)=Cc1ccc([N+](=O)[O-])cc1
323 to 327 | COc1ccc2nc3cc(C(=O)O)ccn3c(=O)c2c1
192 to 194 | O=C(Cc1ccccn1)c1ccccc1[NH+]([O-])C(=O)c1ccccc1 (stereo not given)
303 to 305 | O=c1[nH]c2ncc(-c3ccc(-c4n[nH]c(C(F)(F)F)n4)cc3)nc2n1CC1CCCCC1
165 to 167 | CC(C)[C@H](NC(=O)OCc1csc(N2CCCC2)n1)C(=O)N[C@@H](Cc1ccccc1)[C@@H](O)C[C@H](Cc1ccccc1)NC(=O)OCc1cncs1
238 to 240 | CCN1c2ncccc2C(=O)Nc2c(C)cc(N3CCC[C@H]3CO)nc21

melting point [°C] | SMILES
124 to 125 | CC(=O)N(CCCC(=O)O)c1ccccc1-c1ccccc1
276 to 278 | NS(=O)(=O)c1ccc(NC(=O)c2ccccc2SSc2ccccc2C(=O)O)cc1
262 | CN1C(C(=O)Nc2nc3ccccc3s2)=C(O)c2ccc3ccccc3c2S1(=O)=O
234 to 237 | COc1cc(-c2cccs2)c(OC)c2c(OC)cc(-c3cccs3)c(OC)c12
109 to 110 | CC(C(O)C(C)(C)Cc1ccc(Cl)c(OC(F)(F)F)c1)n1cncn1 (stereo not given)
83 to 84 | COc1cc(SC(F)F)nc(N)n1
66 to 69 | NS(=O)(=O)OCCOc1cccc(Cl)c1
245 to 247 | Cc1ccc2[nH]c(-c3ccc(S(C)(=O)=O)cc3)c(-c3ccccc3)c2c1
163 to 165 | CCCC(=O)c1cnc2c(OC)cccc2c1Nc1ccc(OC(=O)CC)cc1C
159 to 161 | N#Cc1ccc(OCc2ccsc2)cc1OC(C(=O)O)c1ccccc1F (racemic)
67 to 70 | CC(C)Oc1ccc(/C=C(\NC(=O)c2ccc(OCCC3C=CCC3)cc2)C(=O)NCCO)cc1 (stereo not given)
249 to 254 | NCC1CN(c2c(F)cc3c(=O)c(C(=O)O)cn(-c4nc(N)c(F)cc4F)c3c2Cl)C1
49 | CCCCc1ccc(-c2ccc(CCc3ccc(Cl)cc3)cc2)c(F)c1
174 to 175 | CN(c1ccc(Cl)cc1)C1CCN(c2ccc(OC[C@@]3(C)Cn4cc([N+](=O)[O-])nc4O3)cc2)CC1
77 | NCC1COc2cc(F)cc(-c3ccccc3F)c2N1 (stereo not given)
> 300 | O=C(O)c1ccn(C2=CC3=C(CC2)CCc2[nH]c(=O)c(=O)n(O)c23)c1
123 to 125 | O=S(=O)(Nc1ccc2c(OCc3ccc(-c4ccccc4)cc3F)cccc2c1)C(F)(F)F
116 to 118 | Cc1ccc(C2c3c(cc(C)c(Br)c3C)OC2(C)C)cc1 (stereo not given)
111 to 112 | COc1ccc(C(O)(Cc2ccccc2)c2ccccc2)cc1 (stereo not given)
93 to 95 | CCOC(=O)C=Cc1cc(OCc2ccccc2)ccc1-c1ccc(-c2cccnc2)c(C(F)F)c1
45 | BrC=C(c1ccccc1)c1ccccc1
185 to 187 | CN(C)c1c(Br)cc2c3c(cccc13)C(=O)N(O)C2=O
